We go through 20 molecules from patent US12091425B2 (AMGEN INC., priority 2016, dated 2024).

For test [1], the system named is OPM-2 human multiple myeloma cell line. The experiment in a line: Cell Viability Assay (OPM-2 10 FBS). The format is cell-based. Conditions: OPM-2 cells, CellTiter-Glo. The essentials:
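OPM-2 myeloma cells, 3000/well in medium with 10% FBS, exposed to serially diluted compounds for 16 h at 37° C./5% CO2. Viability read by CellTiter-Glo luminescence; IC50 from 4-parameter logistic fit.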

Test [2] has as its target T1, Mcl-1/Bim interaction, recombinant human Mcl-1 (171-327) (Homo sapiens, UniProt Q07820).
T1 construct: made in house
The experiment in a line: Cell free Mcl-1: Bim Affinity Assay (Mcl-1 HTRF). The test is classed as binding. Summed up:
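Compounds were mixed with the protein and a biotinylated Bim peptide spanning human residues 51-76. Plates were left overnight, then TR-FRET signal was measured. A four-parameter sigmoidal model applied to duplicate competition data gave IC50.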

Where [3] appears, read: Homo sapiens, OPM-2, 16 h, 16 h.
Setting [4] is: TR-FRET, 0.1 nM Mcl-1 (171-327), 0.05 nM biotin-Bim (51-76).
The mark [5] stands for this setting: cell free Mcl-1:Bim TR-FRET, recombinant human Mcl-1 (171-327).
[6] abbreviates: Homo sapiens, OPM-2, 16 h, 16 h incubation.

T1 sequence (Q07820 171-327): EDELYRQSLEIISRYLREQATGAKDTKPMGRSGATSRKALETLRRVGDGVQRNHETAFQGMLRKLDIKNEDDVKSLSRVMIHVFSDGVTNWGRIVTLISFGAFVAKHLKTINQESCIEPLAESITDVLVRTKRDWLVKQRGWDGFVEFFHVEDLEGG

As to `COC[C@@H]1[C@@H](C)C/C=C/[C@H](O)[C@@H]2CC[C@H]2CN2C[C@@]3(CCCc4cc(Cl)ccc43)COc3ccc(cc32)C(=O)NS1(=O)=O` (single isomer, unassigned) [Example 455], the IC50 was 71.6 nM in test [1] (setting [3]) and 0.166 nM in test [2] (setting [4]).
For `O=C1NS(=O)(=O)NCC/C=C/[C@H](O)[C@@H]2CC[C@H]2CN2C[C@@]3(CCCc4cc(Cl)ccc43)COc3ccc1cc32` [Example 19, (1S,3′R,6′R,7′S,8′E)-6-chloro-7′-hydroxy-3,4-dihydro-2H,15′H-spiro[naphthalene-1,22′-[20]oxa[13]thia[1,12,14]triazatetracyclo[14.7.2.0^3,6.0^19,24]pentacosa[8,16,18,24]tetraen]-15′-one 13,13′ dioxide] the same measures were 1220 nM and 0.494 nM.
`C[C@H]1CCCS(=O)(=O)NC(=O)c2ccc3c(c2)N(C[C@@H]2CC[C@H]2[C@@H](O)C1)C[C@@]1(CCCc2cc(Cl)ccc21)CO3` (single isomer, unassigned) [Example 242]: the results for the IC50 in test [1] (16 h) and in test [2] (setting [4]) were 467 nM and 3.05 nM, respectively.
As to `CC[N+](CC)(CC)CCO[C@H]1/C=C/C[C@H](C)[C@@H](C)S(=O)(=O)NC(=O)c2ccc3c(c2)N(C[C@@H]2CC[C@H]21)C[C@@]1(CCCc2cc(Cl)ccc21)CO3` [Example 533, 2-(((1S,3′R,6′R,7′S,8′E,11′S,12′R)-6-chloro-11′,12′-dimethyl-13′,13′-dioxido-15′-oxo-3,4-dihydro-2H-spiro[naphthalene-1,22′-[20]oxa[13]thia[1,14]diazatetracyclo[14.7.2.0^3,6.0^19,24]pentacosa [8,16,18,24]tetraen]-7′-yl)oxy)-N,N,N-triethylethanaminium 2,2,2-trifluoroacetate], the results for the IC50 in test [1] (setting [3]) and in test [2] (setting [5]) were 14200 nM and 0.583 nM, respectively.
For `CC(C)(C)S(=O)(=O)CC[C@@H]1CC/C=C/[C@H](O)[C@@H]2CC[C@H]2CN2C[C@@]3(CCCc4cc(Cl)ccc43)COc3ccc(cc32)C(=O)NS1(=O)=O.CC(C)(C)S(=O)(=O)CC[C@H]1CC/C=C/[C@H](O)[C@@H]2CC[C@H]2CN2C[C@@]3(CCCc4cc(Cl)ccc43)COc3ccc(cc32)C(=O)NS1(=O)=O` (mixture of isomers) [Example 154], the values for the IC50 in test [1] (16 h) and in test [2] (setting [4]) were 7580 nM and 0.259 nM, respectively.
For `C[C@@H]1CC/C=C/[C@H](OCc2ncccn2)[C@@H]2CC[C@H]2CN2C[C@@]3(CCCc4cc(Cl)ccc43)COc3ccc(cc32)C(=O)NS1(=O)=O` [Example 956, (1S,3′R,6′R,7′S,8′E,12′R)-6-chloro-12′-methyl-7′-(2-pyrimidinylmethoxy)-3,4-dihydro-2H,15′H-spiro[naphthalene-1,22′-[20]oxa[13]thia[1,14]diazatetracyclo[14.7.2.0^3,6.0^19,24]pentacosa [8,16,18,24]tetraen]-15′-one 13′,13′-dioxide], the IC50 was found to be 211 nM in test [1] (setting [6]) and 0.275 nM in test [2] (setting [4]).
`CCN1[C@@H](C)C/C=C/[C@H](O)[C@@H]2CC[C@H]2CN2C[C@@]3(CCCc4cc(Cl)ccc43)COc3ccc(cc32)C(=O)NS1(=O)=O` (single isomer, unassigned) [Example 57]: the results for the IC50 in test [1] (setting [3]) and in test [2] (setting [4]) were 555 nM and 0.491 nM, respectively.
For `C[C@@H]1[C@@H](C)C/C=C/[C@H](OCC(=O)N2CC(N3CCCC3)C2)[C@@H]2CC[C@H]2CN2C[C@@]3(CCCc4cc(Cl)ccc43)COc3ccc(cc32)C(=O)NS1(=O)=O` [Example 309, (1S,3′R,6′R,7′S,8′E,11′S,12′R)-6-chloro-11′,12′-dimethyl-7′-(2-oxo-2-(3-(1-pyrrolidinyl)-1-azetidinyl)ethoxy)-3,4-dihydro-2H,15′H-spiro[naphthalene-1,22′-[20]oxa[13]thia[1,14]diazatetracyclo[14.7.2.0^3,6.0^19,24]pentacosa [8,16,18,24]tetraen]-15′-one 13′,13′-dioxide] the same measures were 414 nM and 0.0805 nM.
On to `Cc1ccc(S(=O)(=O)NCCO[C@H]2/C=C/C[C@H](C)[C@@H](C)S(=O)(=O)NC(=O)c3ccc4c(c3)N(C[C@@H]3CC[C@H]32)C[C@@]2(CCCc3cc(Cl)ccc32)CO4)cc1` [Example 726, N-(2-(((1S,3′R,6′R,7′S,8′E,11′S,12′R)-6-chloro-11′,12′-dimethyl-13′, 13′-dioxido-15′-oxo-3,4-dihydro-2H-spiro[naphthalene-1,22′-[20]oxa[13]thia[1,14]diazatetracyclo[14.7.2.0^3,6.0^19,24]pentacosa[8,16,18,24]tetraene]-7′-yl)oxy)ethyl)4-methylbenzenesulfonamide], for which the results for the IC50 in test [1] (setting [3]) and in test [2] (setting [5]) were 2140 nM and 12.2 nM, respectively.
As to `C[C@@H]1[C@@H](C)C=C/C=C/[C@@H]2CC[C@H]2CN2C[C@@]3(CCCc4cc(Cl)ccc43)COc3ccc(cc32)C(=O)NS1(=O)=O` (stereo in doubt) [Example 372, (1S,3′R,6′S,7′E,9′E,11′S,12′R)-6-chloro-11′,12′-dimethyl-3,4-dihydro-2H,15′H-spiro[naphthalene-1,22′-[20]oxa[13]thia[1,14]diazatetracyclo[14.7.2.0^3,6.0^19,24]pentacosa [7,9,16,18,24]pentaen]-15′-one 13′,13′-dioxide], the IC50 in test [1] (setting [3]) came out at 14600 nM; in test [2] (setting [4]), 9.49 nM.
Turning to `C[C@H]1CCCS(=O)(=O)NC(=O)c2ccc3c(c2)N(C[C@@H]2CC[C@H]2[C@@H](O)C1)C[C@@]1(CCCc2cc(Cl)ccc21)CO3` (single isomer, unassigned) [Example 241], the IC50 stood at 7390 nM in test [1] (16 h) and 4.85 nM in test [2] (setting [4]).
As for `CO[C@H](C)CC1[C@@H](C)C/C=C/[C@H](O)[C@@H]2CC[C@H]2CN2C[C@@]3(CCCc4cc(Cl)ccc43)COc3ccc(cc32)C(=O)NS1(=O)=O` (single isomer, unassigned) [Example 529], the half-inhibitory concentration (IC50) in test [1] (16 h) is 754 nM; in test [2] (setting [5]) it was 0.97 nM.
Turning to `CC[C@@H]1CC/C=C/[C@H](O[C@H](C)C(=O)O)[C@@H]2CC[C@H]2CN2C[C@@]3(CCCc4cc(Cl)ccc43)COc3ccc(cc32)C(=O)NS1(=O)=O` [Example 1005], the figures for the IC50 in test [1] (16 h incubation) and in test [2] (setting [4]) were 4110 nM and 0.157 nM, respectively.
`O=C1NS(=O)(=O)N(CC2CCCO2)CCC=CC(O)C2CCC2CN2CC3(CCCc4cc(Cl)ccc43)COc3ccc1cc32` (stereo not shown) [Example 21]: the half-maximal inhibitory concentration (IC50) was 1080 nM in test [1] (setting [3]) and 0.806 nM in test [2] (setting [4]).
As to `CC[C@H]1[C@H](OC)C/C=C/[C@H](O)[C@@H]2CC[C@H]2CN2C[C@@]3(CCCc4cc(Cl)ccc43)COc3ccc(cc32)C(=O)NS1(=O)=O` (single isomer, unassigned) [Example 459], the figures for the IC50 in test [1] (16 h) and in test [2] (setting [4]) were 3300 nM and 3.37 nM, respectively.
As to `CCOC(=O)CO[C@H]1/C=C/[C@H](C)[C@H](C)[C@@H](C)S(=O)(=O)NC(=O)c2ccc3c(c2)N(C[C@@H]2CC[C@H]21)C[C@@]1(CCCc2cc(Cl)ccc21)CO3` [Example 1050, ethyl (((1S,3′R,6′R,7′S,8′E,10′S,11′S,12′R)-6-chloro-10′,11′,12′-trimethyl-13′,13′-dioxido-15′-oxo-3,4-dihydro-2H-spiro[naphthalene-1,22′-[20]oxa[13]thia[1,14]diazatetracyclo[14.7.2.0^3,6.0^19,24]pentacosa [8,16,18,24]tetraen]-7′-yl)oxy)acetate], the values for the IC50 in test [1] (setting [6]) and in test [2] (setting [4]) were 288 nM and 0.589 nM, respectively.
On the same counts, the results for `CC[C@@H]1CC/C=C/[C@H](OCc2nnn(C)n2)[C@@H]2CC[C@H]2CN2C[C@@]3(CCCc4cc(Cl)ccc43)COc3ccc(cc32)C(=O)NS1(=O)=O` [Example 987, (1S,3′R,6′R,7′S,8′E,12′R)-6-chloro-12′-ethyl-7′-((2-methyl-2H-tetrazol-5-yl)methoxy)-3,4-dihydro-2H,15′H-spiro[naphthalene-1,22′-[20]oxa[13]thia[1,14]diazatetracyclo[14.7.2.0^3,6.0^19,24]pentacosa [8,16,18,24]tetraen]-15′-one 13′,13′-dioxide] are 392 nM and 0.616 nM.
As for `C[C@@H]1[C@@H](C)C/C=C/[C@H](OCCN2CCCC2=O)[C@@H]2CC[C@H]2CN2C[C@@]3(CCCc4cc(Cl)ccc43)COc3ccc(cc32)C(=O)NS1(=O)=O` [Example 730, (1S,3′R,6′R,7′S,8′E,11′5,12′R)-6-chloro-11′,12′-dimethyl-7′-(2-(2-oxo-1-pyrrolidinyl)ethoxy)-3,4-dihydro-2H,15′H-spiro[naphthalene-1,22′-[20]oxa[13]thia[1,14]diazatetracyclo[14.7.2.0^3,6.0^19,24]pentacosa [8,16,18,24]tetraen]-15′-one-13′, 13′-dioxide], the IC50 worked out at 157 nM in test [1] (setting [3]) and 0.307 nM in test [2] (setting [5]).
On the same counts, the results for `C[C@@H]1[C@@H](C)C/C=C/[C@H](OCCO[C@H]2CCCCO2)[C@@H]2CC[C@H]2CN2C[C@@]3(CCCc4cc(Cl)ccc43)COc3ccc(cc32)C(=O)NS1(=O)=O` (mixture of isomers) [Example 517] are 467 nM and 1.86 nM.
In the case of `CO[C@H](C)C[C@H]1CC/C=C/[C@H](O)[C@@H]2CC[C@H]2CN2C[C@@]3(CCCc4cc(Cl)ccc43)COc3ccc(cc32)C(=O)NS1(=O)=O` (single isomer, unassigned) [Example 508], the figures for the IC50 in test [1] (16 h) and in test [2] (setting [5]) were 2470 nM and 6.02 nM, respectively.
